Data from ChEMBL document CHEMBL1136848, “Parallel medicinal chemistry approaches to selective HDAC1/HDAC2 inhibitor (SHI-1:2) optimization” (Bioorg Med Chem Lett, 2009).
The source made the active and inactive calls. The calls are words filed in the database; no cut-off is given here.

Legend:
Histone deacetylase 1 = Histone deacetylase 1 (Homo sapiens, UniProt Q13547); assay: Inhibition of C-terminal FLAG-tagged human HDAC1 overexpressed in mammalian cells by plate reader method; format: cell-based
HCT-116 [1] = assay: Antiproliferative activity against human HCT116 cells expressing HDAC after 72 hrs; format: functional, cell-based; conditions: HCT-116, 72 h
Histone deacetylase 3 = Histone deacetylase 3 (Homo sapiens, UniProt O15379); assay: Inhibition of C-terminal FLAG-tagged human HDAC3 overexpressed in mammalian cells by plate reader method; format: cell-based
[2] = target: T1, Voltage-gated inwardly rectifying potassium channel KCNH2 (Homo sapiens, UniProt Q12809)
HCT-116 [3] = assay: Antiproliferative activity against human HCT116 cells expressing HDAC after 96 hrs; format: functional, cell-based; conditions: for IC50: HCT-116, 96 h
[4] = Volume of distribution at steady state in dog at 0.5 mg/kg, iv; format: ADME, organism-based, Canis lupus familiaris; design: dose 0.5 mg/kg, route intravenous; conditions: in vivo, read-out: Vdss
[5] = target: T1, Voltage-gated inwardly rectifying potassium channel KCNH2; assay: Inhibition of human ERG at < 10 uM
[6] = Half life in dog at 0.5 mg/kg, iv; format: ADME, organism-based, Canis lupus familiaris; design: dose 0.5 mg/kg, route intravenous; conditions: in vivo
[7] = Oral bioavailability in dog at 1 mg/kg, po; format: ADME, organism-based, Canis lupus familiaris; conditions: in vivo
[8] = Volume of distribution at steady state in rat at 2 mg/kg, iv; format: ADME, organism-based; design: dose 2 mg/kg, route intravenous; conditions: in vivo, read-out: Vdss
[9] = Half life in rat at 2 mg/kg, iv; format: ADME, organism-based; design: dose 2 mg/kg, route intravenous; conditions: in vivo
[10] = Clearance in dog at 0.5 mg/kg, iv; format: ADME, organism-based, Canis lupus familiaris; design: dose 0.5 mg/kg, route intravenous; conditions: in vivo
[11] = Inhibition of calcium ion channel at < 10 uM
[12] = Increase in acetylated H2B/Total H2B ratio in acute in-vivo HCT116 xenograft model at 25 mg/kg, ip; format: functional; conditions: route intraperitoneal
[13] = Clearance in rat at 2 mg/kg, iv; format: ADME, organism-based; design: dose 2 mg/kg, route intravenous; conditions: in vivo
[14] = Oral bioavailability in rat at 4 mg/kg; format: ADME, organism-based; conditions: in vivo
[15] = Bioavailability in rat plasma; format: ADME, organism-based
Homo sapiens = organism: Homo sapiens; assay: Selectivity ratio of IC50 for C-terminal FLAG-tagged human HDAC3 to IC50 C-terminal FLAG-tagged human HDAC1
[16] = Half life in rat plasma; format: ADME, organism-based
[17] = Volume of distribution in rat plasma; format: ADME, organism-based
[18] = Clearance in rat plasma; format: ADME, organism-based

Chain of Histone deacetylase 1 (Q13547 whole entry): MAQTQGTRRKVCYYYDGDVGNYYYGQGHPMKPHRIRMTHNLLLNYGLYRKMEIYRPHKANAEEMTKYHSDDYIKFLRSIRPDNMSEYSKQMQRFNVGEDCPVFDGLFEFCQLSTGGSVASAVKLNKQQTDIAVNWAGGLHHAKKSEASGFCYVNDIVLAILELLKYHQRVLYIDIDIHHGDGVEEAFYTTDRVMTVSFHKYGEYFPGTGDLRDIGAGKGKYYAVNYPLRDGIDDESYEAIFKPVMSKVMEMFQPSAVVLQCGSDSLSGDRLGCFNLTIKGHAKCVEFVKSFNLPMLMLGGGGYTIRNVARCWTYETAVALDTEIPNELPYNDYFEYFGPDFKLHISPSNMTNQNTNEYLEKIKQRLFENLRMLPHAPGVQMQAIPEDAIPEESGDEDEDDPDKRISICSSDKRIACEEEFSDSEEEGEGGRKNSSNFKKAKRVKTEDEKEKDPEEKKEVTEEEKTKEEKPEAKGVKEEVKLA
Chain of Histone deacetylase 3 (O15379 whole entry): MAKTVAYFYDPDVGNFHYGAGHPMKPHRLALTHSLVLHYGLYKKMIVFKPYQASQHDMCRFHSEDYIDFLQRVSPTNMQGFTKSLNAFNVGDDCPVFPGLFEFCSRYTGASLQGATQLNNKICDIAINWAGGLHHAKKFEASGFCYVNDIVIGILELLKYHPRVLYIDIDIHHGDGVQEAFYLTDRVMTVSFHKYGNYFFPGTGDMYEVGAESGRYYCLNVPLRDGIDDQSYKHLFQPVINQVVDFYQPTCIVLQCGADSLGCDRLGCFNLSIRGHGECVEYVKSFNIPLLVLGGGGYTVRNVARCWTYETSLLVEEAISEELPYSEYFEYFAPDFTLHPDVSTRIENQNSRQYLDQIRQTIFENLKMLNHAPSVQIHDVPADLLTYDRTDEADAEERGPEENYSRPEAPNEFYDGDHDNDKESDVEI
T1 sequence (Q12809 whole entry): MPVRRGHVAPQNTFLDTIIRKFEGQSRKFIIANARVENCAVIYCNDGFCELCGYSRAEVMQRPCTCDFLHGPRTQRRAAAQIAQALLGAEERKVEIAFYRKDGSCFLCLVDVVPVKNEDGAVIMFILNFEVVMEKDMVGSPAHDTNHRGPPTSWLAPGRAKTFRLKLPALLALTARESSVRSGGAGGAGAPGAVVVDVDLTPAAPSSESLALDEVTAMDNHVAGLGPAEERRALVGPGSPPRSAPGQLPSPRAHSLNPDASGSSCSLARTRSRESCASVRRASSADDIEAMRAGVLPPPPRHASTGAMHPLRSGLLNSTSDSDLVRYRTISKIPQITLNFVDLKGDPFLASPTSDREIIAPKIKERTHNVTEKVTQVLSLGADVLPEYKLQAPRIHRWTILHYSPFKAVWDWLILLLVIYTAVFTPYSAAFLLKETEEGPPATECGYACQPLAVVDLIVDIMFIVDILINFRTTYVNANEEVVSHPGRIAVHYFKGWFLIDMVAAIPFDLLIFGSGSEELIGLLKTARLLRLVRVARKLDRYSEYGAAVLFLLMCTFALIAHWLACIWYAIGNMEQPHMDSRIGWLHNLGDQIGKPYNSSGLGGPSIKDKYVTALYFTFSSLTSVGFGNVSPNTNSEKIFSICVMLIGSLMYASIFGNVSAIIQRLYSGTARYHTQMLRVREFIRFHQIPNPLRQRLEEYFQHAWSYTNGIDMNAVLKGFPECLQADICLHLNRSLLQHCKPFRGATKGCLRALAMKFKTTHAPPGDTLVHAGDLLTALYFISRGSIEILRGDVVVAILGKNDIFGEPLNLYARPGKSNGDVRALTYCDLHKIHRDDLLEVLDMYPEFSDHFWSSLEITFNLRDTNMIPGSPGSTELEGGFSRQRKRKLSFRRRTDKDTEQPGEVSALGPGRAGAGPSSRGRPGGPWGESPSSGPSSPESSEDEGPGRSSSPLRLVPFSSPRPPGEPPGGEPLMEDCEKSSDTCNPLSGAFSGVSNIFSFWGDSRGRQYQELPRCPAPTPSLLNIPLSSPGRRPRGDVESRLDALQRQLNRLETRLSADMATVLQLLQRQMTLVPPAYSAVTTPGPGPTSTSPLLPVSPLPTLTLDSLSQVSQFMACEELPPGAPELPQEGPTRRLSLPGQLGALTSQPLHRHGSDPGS

Nc1ccc(-c2cccs2)cc1NC(=O)c1ccc(C(=O)N2CCC3(CCCN3)CC2)cc1
IC50 (Histone deacetylase 1): 0.011 µM | IC50 (HCT-116 [1]): 0.07 µM | IC50 (Histone deacetylase 3): 4.33 µM | IC50 [2]: 25.1 µM

CC(C)CNCc1ccc(C(=O)Nc2cc(-c3ccccc3)ccc2O)cc1
Activity (HCT-116 [3]): inactive

Cc1ccc(O)c(NC(=O)c2ccc(CNc3ccncc3)cc2)c1
IC50 (Histone deacetylase 1): 20.6 µM | Activity (HCT-116 [3]): inactive

CC(NCc1ccc(C(=O)Nc2cc(-c3ccccc3)ccc2O)cc1)c1ccncc1 (stereo unspecified)
IC50 (Histone deacetylase 1): 0.013 µM | IC50 (HCT-116 [3]): 1.82 µM

Nc1ccc(-c2cccc(F)c2)cc1NC(=O)c1ccc(CN2CCC3(CCCN3)CC2)cc1
IC50 (Histone deacetylase 1): 0.047 µM | IC50 (HCT-116 [1]): 1.07 µM | IC50 (Histone deacetylase 3): 5.73 µM

O=C(NO)c1ccc(CNCCc2cccc(Cl)c2)cc1
IC50 (Histone deacetylase 1): 1.01 µM

O=C(Nc1cc(F)ccc1O)c1ccc(CNc2ccncc2)cc1
IC50 (Histone deacetylase 1): 2.01 µM | Activity (HCT-116 [3]): inactive

Nc1ccc(-c2ccccc2F)cc1NC(=O)c1ccc(CN2CCC3(CCCN3)CC2)cc1
IC50 (Histone deacetylase 1): 0.016 µM | IC50 (HCT-116 [1]): 0.47 µM | IC50 (Histone deacetylase 3): 17.4 µM | IC50 [2]: 0.183 µM

COc1cccc(CNCc2ccc(C(=O)NO)cc2)c1
IC50 (Histone deacetylase 1): 0.477 µM

CN(Cc1ccc(C(=O)Nc2cc(-c3ccccc3)ccc2N)cc1)c1ccncc1
IC50 (HCT-116 [1]): 3.61 µM | IC50 (Histone deacetylase 3): 5.38 µM

O=C(NO)c1ccc(CNC2CCCCC2)cc1
IC50 (Histone deacetylase 1): 24.1 µM

O=C(Nc1ccccc1O)c1ccc(CNc2ccncc2)cc1
IC50 (Histone deacetylase 1): 1.57 µM | Activity (HCT-116 [3]): inactive

O=C(Nc1cc(-c2ccccc2)ccc1O)c1ccc(CNc2ccncc2)cc1
IC50 (HCT-116 [3]): 1.74 µM

Nc1ccc(-c2cccs2)cc1NC(=O)c1ccc(CN2CCC3(CCCN3)CC2)cc1
IC50 (Histone deacetylase 1): 0.004 µM | IC50 (HCT-116 [1]): 0.082 µM | IC50 (Histone deacetylase 3): 9.62 µM | IC50 [2]: 1.6 µM

O=C(NO)c1ccc(CNc2ccc(Cl)cc2)cc1
IC50 (Histone deacetylase 1): 1.62 µM

O=C(Nc1cc(-c2ccccc2)ccc1O)c1ccc(CNCCc2ccccc2)cc1
Activity (HCT-116 [3]): inactive

Nc1ccc(-c2ccc(F)cc2)cc1NC(=O)c1ccc(CN2CCC3(CCNC3)CC2)cc1
IC50 (Histone deacetylase 1): 0.013 µM | IC50 (HCT-116 [1]): 0.276 µM | IC50 (Histone deacetylase 3): 4.8 µM | IC50 [2]: 0.237 µM

Nc1ccc(-c2ccccc2)cc1NC(=O)c1ccc(C(=O)N2CCC3(CCCN3)CC2)cc1
Vd [4]: 5.1 L/kg | IC50 (Histone deacetylase 1): 0.008 µM | Activity [5]: Not Active | half-life [6]: 8.5 h | bioavailability [7]: 4% | IC50 (HCT-116 [1]): 0.103 µM | Vd [8]: 14 L/kg | half-life [9]: 7 h | clearance [10]: 8.2 mL/min/kg | Activity [11]: inactive | fold change (FC) [12]: 3 | IC50 (Histone deacetylase 3): 5.1 µM | clearance [13]: 26 mL/min/kg | IC50 [2]: 12.4 µM | bioavailability [14]: 17%

Nc1ccc(-c2ccc(F)cc2)cc1NC(=O)c1ccc(C(=O)N2CCC3(CCCN3)CC2)cc1
IC50 (Histone deacetylase 1): 0.012 µM | IC50 (HCT-116 [1]): 0.138 µM | IC50 (Histone deacetylase 3): 3.2 µM

O=C(Nc1cc(-c2ccccc2)ccc1O)c1ccc(CNCc2cccnc2)cc1
IC50 (HCT-116 [3]): 1.36 µM

Nc1ccc(-c2ccsc2)cc1NC(=O)c1ccc(CN2CCC3(CCCN3)CC2)cc1
IC50 (Histone deacetylase 1): 0.008 µM | IC50 (HCT-116 [1]): 0.073 µM | IC50 (Histone deacetylase 3): 8.71 µM

Nc1ccc(-c2ccccc2)cc1NC(=O)c1ccc(CN2CCC3(CCNC3)CC2)cc1
IC50 (Histone deacetylase 1): 0.033 µM | IC50 (HCT-116 [1]): 0.309 µM | IC50 (Histone deacetylase 3): 6.93 µM

Nc1ccc(-c2ccccc2)cc1NC(=O)c1ccc(CN2CCC3(CCCN3)CC2)cc1
bioavailability [15]: 70% | Ratio IC50 (Homo sapiens): 2000 | IC50 (Histone deacetylase 1): 0.008 µM | half-life [16]: 8 h | IC50 (HCT-116 [1]): 0.118 µM | Vd [17]: 22 L/kg | IC50 (Histone deacetylase 3): 16.5 µM | clearance [18]: 45 mL/min/kg

Nc1ccc(-c2ccccc2F)cc1NC(=O)c1ccc(C(=O)N2CCC3(CCCN3)CC2)cc1
IC50 (Histone deacetylase 1): 0.011 µM | IC50 (HCT-116 [1]): 0.29 µM | IC50 (Histone deacetylase 3): > 50 µM

COc1ccc(O)c(NC(=O)c2ccc(CNc3ccncc3)cc2)c1
IC50 (Histone deacetylase 1): 7.96 µM | Activity (HCT-116 [3]): inactive

Nc1ccc(-c2ccccc2)cc1NC(=O)c1ccc(CNc2ccncc2)cc1
IC50 (HCT-116 [1]): 1.75 µM | IC50 (Histone deacetylase 3): 6.39 µM

O=C(Nc1cc(Cl)ccc1O)c1ccc(CNc2ccncc2)cc1
IC50 (Histone deacetylase 1): 5.03 µM | Activity (HCT-116 [3]): inactive

O=C(NO)c1ccc(CNCc2cccc(Cl)c2)cc1
IC50 (Histone deacetylase 1): 0.348 µM

O=C(Nc1cc(Br)ccc1O)c1ccc(CNc2ccncc2)cc1
IC50 (Histone deacetylase 1): 5.22 µM | Activity (HCT-116 [3]): inactive
